Data as given in patent publication US11174251B2, “Compositions and methods for inhibition of the JAK pathway” (Rigel Pharmaceuticals, Inc., priority 2010, dated 2021).
Structures can show the parent of a compound that is named as a salt.

Target: T1, JAK3 (Homo sapiens, UniProt P52333)
T1 construct: The Ramos B-cell line was acquired from ATCC (ATCC Catalog No. CRL-1596); host or cells: Ramos B-cell line (human)
T1 sequence (P52333 1-1124): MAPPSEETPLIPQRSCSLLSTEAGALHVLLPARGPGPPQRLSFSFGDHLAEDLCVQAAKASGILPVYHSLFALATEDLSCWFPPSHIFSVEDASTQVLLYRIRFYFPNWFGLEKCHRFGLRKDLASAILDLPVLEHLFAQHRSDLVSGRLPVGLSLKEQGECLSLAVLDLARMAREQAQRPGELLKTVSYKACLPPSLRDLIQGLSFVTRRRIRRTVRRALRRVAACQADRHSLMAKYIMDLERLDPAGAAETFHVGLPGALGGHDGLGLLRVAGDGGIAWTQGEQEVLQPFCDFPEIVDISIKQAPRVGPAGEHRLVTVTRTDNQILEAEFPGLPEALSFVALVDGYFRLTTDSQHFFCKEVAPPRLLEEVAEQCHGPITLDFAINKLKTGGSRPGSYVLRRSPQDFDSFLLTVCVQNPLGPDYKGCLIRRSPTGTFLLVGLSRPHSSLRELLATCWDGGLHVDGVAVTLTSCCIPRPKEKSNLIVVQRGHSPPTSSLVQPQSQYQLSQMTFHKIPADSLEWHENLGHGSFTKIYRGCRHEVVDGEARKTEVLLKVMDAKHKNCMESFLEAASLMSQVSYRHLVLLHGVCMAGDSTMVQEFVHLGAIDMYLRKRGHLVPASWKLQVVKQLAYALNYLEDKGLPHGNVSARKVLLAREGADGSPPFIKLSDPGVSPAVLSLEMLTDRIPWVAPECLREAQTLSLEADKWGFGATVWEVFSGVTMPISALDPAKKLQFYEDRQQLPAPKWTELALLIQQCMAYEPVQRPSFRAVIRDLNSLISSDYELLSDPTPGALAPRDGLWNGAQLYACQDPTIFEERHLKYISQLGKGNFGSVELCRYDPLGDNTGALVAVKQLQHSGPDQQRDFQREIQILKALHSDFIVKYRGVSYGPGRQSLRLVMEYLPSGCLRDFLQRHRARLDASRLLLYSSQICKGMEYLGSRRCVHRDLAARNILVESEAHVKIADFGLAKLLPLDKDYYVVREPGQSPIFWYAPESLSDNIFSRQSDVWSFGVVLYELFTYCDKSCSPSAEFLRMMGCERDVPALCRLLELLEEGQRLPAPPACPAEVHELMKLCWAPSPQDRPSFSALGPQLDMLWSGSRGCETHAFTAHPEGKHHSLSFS
Experiment: Assay for CD23 expression on Ramos B-cells stimulated by IL-4 (Table IV: ability to inhibit JAK3 activity)
Assay type: cell-based
Conditions: tested under conditions described in Example 3 (so in the source)
Method in brief: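 Human Ramos B cells in RPMI with 5% serum, pre-incubated 1 h at 37 °C with compound or DMSO, then stimulated with IL-4 (final 50 units/mL) for 20–24 h. Surface CD23 upregulation measured by FACS staining as readout of JAK1/JAK3–Stat-6 signalling.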

Structure (SMILES)	IC50 [nM]
COc1cc(Nc2ncc(C)c(Nc3ccc4oc(=O)[nH]c4c3)n2)cc(F)c1C [Compound I-120, 5-(2-(3-fluoro-5-methoxy-4-methylphenylamino)-5-methylpyrimidin-4-ylamino)benzo[d]oxazol-2(3H)-one trifluoroacetate salt]	< 500
COC(=O)c1cnc(Nc2ccc(C)c(OC)c2)nc1Nc1ccc2oc(=O)[nH]c2c1 [Compound I-56, 2-(3-Methoxy-4-methyl-phenylamino)-4-(2-oxo-2,3-dihydro-benzooxazol-5-ylamino)-pyrimidine-5-carboxylic acid methyl ester trifluoroacetate salt]	> 10000
CCNC(=O)c1ccc(Nc2ncc(F)c(Nc3ccc4oc(=O)[nH]c4c3)n2)cc1 [Compound I-162, N-ethyl-4-(5-fluoro-4-(2-oxo-2,3-dihydrobenzo[d]oxazol-5-ylamino)pyrimidin-2-ylamino)benzamide formate salt]	< 500
COc1ccc(Nc2ncc(C)c(Nc3ccc4oc(=O)[nH]c4c3)n2)c(F)c1 [Compound I-75, 5-(2-(2-fluoro-4-methoxyphenylamino)-5-methylpyrimidin-4-ylamino)benzo[d]oxazol-2(3H)-one trifluoroacetate salt]	< 500
COc1cccc(Nc2ncc(C)c(Nc3ccc4oc(=O)[nH]c4c3)n2)n1 [II-20, N2-(6-methoxypyridin-2-yl)-5-methyl-N4-(2-oxo-2,3-dihydro-1,3-benzoxazol-5-yl)-2,4-pyrimidinediamine]	< 500
